Assay results reported in PubChem BioAssay (NCI).
Values joined by “and” are separate entries in the source; they are usually repeats but may differ in a detail not shown here. Equal values may be shown once.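 Cultured in 96-well plates, cells were exposed to test compound for 48 hours across five concentrations. GI50 = concentration required for 50% inhibition of growth. TGI denotes the concentration required for complete inhibition of growth.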 Where a SMILES comes first, the peptide text is derived from it. [ ]: non-standard residue; d: D form. The star is where a group is joined. ξ: configuration not given here. NMeN = CN[C@@H](CC(N)=O)C(=O)O; NMeV = CN[C@H](C(=O)O)C(C)C; ξNMeV = CNC(C(=O)O)C(C)C; Boc = CC(C)(C)OC(=O)*; ξNMeA = CNC(C)C(=O)O

How the values were obtained:
Test in all cases: NCI tumour cell line growth inhibition, 48 h
SR leukemia = system: SR leukemia
OVCAR-3 ovarian = system: OVCAR-3 ovarian
MOLT-4 leukemia = system: MOLT-4 leukemia
OVCAR-8 ovarian = system: OVCAR-8 ovarian
KM12 colon = system: KM12 colon
M14 melanoma = system: M14 melanoma
SF-268 CNS = system: SF-268 CNS
EKVX NSCLC = system: EKVX NSCLC
ACHN renal = system: ACHN renal
UACC-62 melanoma = system: UACC-62 melanoma

| SMILES | TGI (SR leukemia) | TGI (OVCAR-3 ovarian) | TGI (MOLT-4 leukemia) | TGI (OVCAR-8 ovarian) | TGI (KM12 colon) | TGI (M14 melanoma) | TGI (SF-268 CNS) | TGI (EKVX NSCLC) | TGI (ACHN renal) | TGI (UACC-62 melanoma) | GI50 (SR leukemia) | GI50 (OVCAR-3 ovarian) | GI50 (MOLT-4 leukemia) | GI50 (OVCAR-8 ovarian) | GI50 (KM12 colon) | GI50 (M14 melanoma) | GI50 (SF-268 CNS) | GI50 (EKVX NSCLC) | GI50 (ACHN renal) | GI50 (UACC-62 melanoma) |
| --- | --- | --- | --- | --- | --- | --- | --- | --- | --- | --- | --- | --- | --- | --- | --- | --- | --- | --- | --- | --- |
| C=C(C)CN(CC#N)CC(=C)C | > 100 µM | > 100 µM | > 100 µM | > 100 µM | > 100 µM | > 100 µM | > 100 µM | > 100 µM | > 100 µM | > 100 µM |  |  |  |  |  |  |  |  |  |  |
| CCN=c1cc2sc3cc(NCC)c(C)cc3nc-2cc1C | > 100 µM | 0.714 µM | > 100 µM | 11.8 µM | 11 µM | 2.74 µM | 14.4 µM | 4.53 µM | 10.6 µM | 21.8 µM | 1.01 µM | 0.149 µM | 714 nM | 1.22 µM | 0.654 µM | 636 nM | 2.47 µM | 0.632 µM | 1.58 µM | 6.88 µM |
| CCCCCCCCCCC(O)C1CCC(C(O)CCC(O)C2CCC(CCCCCCC[C@H](O)CC3=C[C@@H](C)OC3=O)O2)O1 (stereo not given in full) | > 100 µM | 45 µM | > 100 µM | 34 µM | 68.1 µM | > 100 µM | > 100 µM | > 100 µM | > 100 µM | > 100 µM |  |  |  | 7.39 µM |  |  |  | 4.16 µM | > 100 µM | 0.466 µM |
| COC(=O)c1c2c(c(C)[n+]([O-])c1C)C(=O)C=C(NCc1ccc(OC)cc1)C2=O | > 100 µM | 2.29 µM | 5.3 µM | 4.48 µM | 6.63 µM | 4.3 µM | 8.27 µM | 5.24 µM | 5.23 µM | 2.51 µM | 3.5 µM | 0.795 µM | 1550 nM | 1.11 µM | 1.67 µM | 1920 nM | 2.24 µM | 1.92 µM | 1.98 µM | 0.85 µM |
| CCOc1ccc(Nc2nc(-c3ccc4c(c3)NC(=O)CO4)cs2)cc1 | > 100 µM | > 100 µM | 5.28 µM | > 100 µM | > 100 µM | 17.4 µM | > 100 µM | > 100 µM | > 100 µM | 23.5 µM | 4.68 µM | 20.2 µM | 2010 nM | 4 µM | 11.1 µM | 4330 nM | 36.7 µM | 6.59 µM | 6.96 µM | 6.94 µM |
| O=CN1N=C(c2ccc(Cl)cc2)CC1c1cccc(Nc2ccnc3cc(Cl)ccc23)c1 (stereo not given) | 3.76 µM | 14.5 µM | 11 µM | 29.1 µM | 76.5 µM | 13.5 µM | > 100 µM | > 100 µM | > 100 µM | 19.6 µM | 0.404 µM | 1.1 µM | 1130 nM | 1.92 µM | 1.22 µM | 1550 nM | 2.73 µM | 1.59 µM | 2.64 µM | 1.14 µM |
| COc1ccc(CNc2c3ccccc3nc3ccc(OC)cc23)cc1 | 5.81 µM | 8.68 µM | 10.3 µM | 13.5 µM | 12.4 µM | 4.26 µM | 15.2 µM | 12.2 µM | 10.1 µM | 3.75 µM | 1.86 µM | 2.61 µM | 2750 nM | 3.04 µM | 3.3 µM | 1900 nM | 3.75 µM | 3.15 µM | 2.72 µM | 1.79 µM |
| COc1c(Cl)c2c(c(OC)c1OC)-c1ccc(SC)c(=O)cc1[C@@H](NC(=O)OCC(F)(F)F)CC2 | 17.9 µM | < 0.01 µM | > 100 µM | > 100 µM | 4.26 µM |  | > 90.5 µM | > 100 µM | > 100 µM | 21.2 µM | < 0.01 µM | < 0.01 µM | < 10 nM | < 0.01 µM | < 0.01 µM | < 10 nM | < 0.0105 µM | < 0.01 µM | < 0.01 µM | < 0.01 µM |
| O=[N+]([O-])c1ccc(N=Nc2c(O)ccc3ccccc23)cc1 | > 100 µM | > 100 µM | > 100 µM | > 100 µM | > 100 µM | > 100 µM | > 100 µM | > 100 µM | > 100 µM | > 100 µM |  |  |  | > 100 µM | 19.7 µM and > 100 µM | 43600 nM and > 100000 nM | 35.9 µM and > 100 µM | 28 µM and > 100 µM | 31.3 µM and > 100 µM | 18.3 µM and > 100 µM |
| COc1cccc(-c2nc3sccn3c2-c2ccnc(NCCNS(=O)(=O)c3ccccc3)c2)c1 | > 100 µM | > 100 µM | > 100 µM | > 100 µM | 25 µM | > 100 µM | > 100 µM | > 100 µM | > 100 µM | 3.49 µM | 3.21 µM | 3.15 µM | 2030 nM | 2.13 µM | 3.13 µM | 2840 nM | 3.54 µM | 3.13 µM | 2.22 µM | 1.29 µM |
| Nc1ncn(C2C=C(CO)C(O)C2O)c(=O)n1 (stereo not given) | > 100 µM | > 100 µM | > 100 µM | > 100 µM | > 100 µM | > 100 µM | > 100 µM | > 100 µM | > 100 µM | > 100 µM |  |  |  |  |  |  |  |  |  |  |
| COC(=O)C(C)N(C)C(=O)[C@H](CC(N)=O)N(C)C(=O)[C@@H]1CCCN1C(=O)[C@H](C(C)C)N(C)C(=O)C(C(C)C)N(C)C(=O)[C@@H](NC(=O)OC(C)(C)C)C(C)C (stereo not given in full) (Boc-V[ξNMeV][NMeV]P[NMeN][ξNMeA]-OMe) | > 100 µM | > 100 µM | 38.9 µM and > 100 µM | > 100 µM | > 100 µM | > 100 µM | > 100 µM | > 50 µM and 35.3 µM | > 100 µM | > 100 µM |  | > 100 µM | > 100000 nM |  |  | > 100000 nM |  | 16.9 µM | > 100 µM | > 100 µM |
| CC1=C2C[C@H]3[C@@H](CC=C4C[C@@H](O)CC[C@@]43C)[C@@H]2CC[C@]12O[C@@H]1C[C@H](C)CN[C@H]1[C@H]2C | 21.9 µM | 42.8 µM and 43.2 µM | 50 µM and 58.6 µM | 50 µM and 48.5 µM | 50 µM and 54.7 µM | > 50 µM and 44.1 µM | 50 µM and 50.9 µM | > 100 µM | 22.3 µM and 41.4 µM | 50 µM and 43.7 µM | 3.42 µM | 12.2 µM and 21 µM | 17700 nM and 20500 nM | 11.6 µM and 20.2 µM | 41.3 µM and 23.4 µM | > 50000 nM and 19600 nM | 21.2 µM and 23.7 µM | 51.9 µM | 10.4 µM and 18.7 µM | 24.6 µM and 21.1 µM |
| Nc1nc(=S)[nH]c(C(=O)Nc2ccc(Cl)c(Cl)c2)c1-c1ccc(Cl)cc1 | > 100 µM | > 100 µM | > 100 µM | > 100 µM | > 100 µM | > 100 µM | > 100 µM | > 100 µM | > 100 µM | > 100 µM |  |  |  |  |  |  |  |  |  |  |
| O=S(=O)(c1ccc(N=C2NN=C(c3c[nH]c4ccccc34)CS2)cc1)N1CCOCC1 | > 100 µM | > 100 µM | 40.9 µM | > 100 µM | > 100 µM | > 100 µM | > 100 µM | > 100 µM | > 100 µM | > 100 µM | 4.81 µM | 18.8 µM | 3930 nM | 9.61 µM | 7.13 µM |  | 73.7 µM | 5.76 µM | 88.6 µM | 26.8 µM |
| Cc1cc2cc3c(C)cc(=O)oc3c(C)c2o1 | > 100 µM | > 100 µM | > 100 µM | > 100 µM | > 100 µM | > 100 µM | > 100 µM | > 100 µM | > 100 µM | > 100 µM |  |  |  |  |  |  |  |  |  |  |
